This is an account of results in patent US20080125488A1, “Lactate Containing Pharmaceutical Composition and Uses Thereof” (priority 2003, published 2008).

SMILES strings stand for the structures.

One test relates to isolated rat hearts. Briefly: In vitro model for ischemia (perfused isolated rat hearts). To be noted: 5 mM lactate. Here is the method: In order to determine the suitability of lactate for the treatment of conditions such as ischemia-reperfusion, isolated rat harts were perfused either with perfusion medium containing 5 mM lactate or with a perfusion medium (control) containing 0.2 mM of hexanoic acid and 5.5 mM glucose in accordance with the protocol described by Garnier A. et al., J Mol Cell Cardiol 1996, 28, 1671-1682.

The subject of test [1] is patients suffering from brain injury (brain trauma) with increased intracranial pressure. Kind of test: Treatment of increased intracranial pressure caused by brain trauma. It is filed as in vivo, human. How it is done: For this purpose, the composition of the invention or the mannitol was administered (infused) to a group of each twelve patients and the ICP was measured every 15 minutes.
The results of this study, in which 12 patients were either treated with mannitol or the hypertonic lactate solution of the invention, are shown in FIGS. 1 to 4 as well as in Tables 2 to 5.

As for `CC(O)C(=O)O` (centres unmarked) [lactate], the rate pressure product result with isolated rat hearts (40 minutes perfusion after 40 minutes ischemia, compared to control (FIG. 9A)) is “significantly higher and prolonged increase”. In addition, the heart rate entry in the test with isolated rat hearts (40 minutes perfusion after 40 minutes ischemia, compared to control (FIG. 9C)) is “significantly higher and prolonged increase”. In addition, in the test on isolated rat hearts (compared to control (FIG. 9B)), the diastolic pressure entry is “significantly decreased”.

In test [1] (after treatment), `OC[C@@H](O)[C@@H](O)[C@H](O)[C@H](O)CO` [mannitol] registered a CPP after treatment of 73.2 ± 2.4 mm Hg and an ICP after treatment of 25.7 ± 1.7 mm Hg. In test [1] (before treatment), this compound showed a CPP before treatment of 67.6 ± 2.2 mm Hg. In test [1] (before treatment, mean ± sem), this compound yielded an ICP before treatment of 31 ± 1.8 mm Hg. Also, in test [1] (brain trauma patients, survivors out of group), the number of survival is listed as 7 out of 11. For the same compound, in test [1] (first treatment only), the “number of successful treatment (only first treatment)” value was 5 out of 11. In addition, in test [1] (groups of 12 patients (FIG. 2)), the “patients that survived the brain trauma” value is given as 7. Also, the “number of successful treatment (all treatments)” value in test [1] (out of all ICH episodes treated) was 14 out of 25. Further, in test [1] (patients switched to the other treatment after failure), the “number of cross over” value was 4 out of 11. In addition, in test [1] (within the first 30 minutes after the treatment (FIG. 1)), the “decrease in the intracranial pressure” value is “about 20%”. For the same compound, in test [1] (within the next 3.5 hours after the treatment (rebound, FIG. 1)), the “ICP as share of the initial untreated ICP” value is on record as “about 90%”.
